Measurements reported in ChEMBL document CHEMBL4265870, “Synthesis and biological evaluation of a new series of benzimidazole derivatives as antimicrobial, antiquorum-sensing and antitumor agents” (Eur J Med Chem, 2017).
In brackets after ≈: the same amount, converted by molar mass. Activity calls are given as the source filed them. No cut-off for these calls is given here.

Columns and labels:
[1] = system: Chromobacterium violaceum; assay: Antiquorum-sensing activity against Chromobacterium violaceum ATCC 12472 assessed as reduction in violacein production at 5000 ug/ml a=; assay type: functional
Bacillus cereus = assay: Antimicrobial activity against Bacillus cereus by two fold serial dilution method; assay type: functional
Staphylococcus aureus = assay: Antimicrobial activity against Staphylococcus aureus by two fold serial dilution method; assay type: functional
Escherichia coli = assay: Antimicrobial activity against Escherichia coli by two fold serial dilution method; assay type: functional
HCT-116 = assay: Cytotoxicity in human HCT116 cells assessed as reduction in cell viability by MTT assay; assay type: functional, cell-based
HepG2 = assay: Cytotoxicity in human HepG2 cells assessed as reduction in cell viability by MTT assay; assay type: functional, cell-based
Calf thymus DNA = assay: Binding affinity to calf thymus DNA by TLC plate based assay; assay type: nucleic-acid assay; conditions: Bos taurus
Aspergillus fumigatus = assay: Antimicrobial activity against Aspergillus fumigatus 293 by two fold serial dilution method; assay type: functional; conditions: Af293
MCF7 = assay: Cytotoxicity in human MCF7 cells assessed as reduction in cell viability by MTT assay; assay type: functional, cell-based
Mus musculus [2] = assay: Toxicity in mouse EAC cells implanted Swiss mouse assessed as hemoglobin level at 0.5 mg/mouse dosed for 9 days starting 1 day after tumor cell implantation (reference value: 8.15 g/dl); assay type: organism-based; conditions: in vivo
Mus musculus [3] = assay: Toxicity in mouse EAC cells implanted Swiss mouse assessed as RBC count at 0.5 mg/mouse dosed for 9 days starting 1 day after tumor cell implantation (reference value: 3.69 10^6/mm3)); assay type: organism-based; conditions: in vivo
Ehrlich [4] = assay: Antitumor activity against mouse EAC cells implanted in Swiss mouse assessed as mouse survival time at 0.5 mg/mouse dosed for 9 days starting 1 day after tumor cell implantation (reference value: 14.5 days); assay type: functional
Ehrlich [5] = assay: Antitumor activity against mouse EAC cells implanted in Swiss mouse assessed as increase in life span at 0.5 mg/mouse dosed for 9 days starting 1 day after tumor cell implantation relative to untreated control; assay type: functional
Mus musculus [6] = assay: Toxicity in mouse EAC cells implanted Swiss mouse assessed as WBC count at 0.5 mg/mouse dosed for 9 days starting 1 day after tumor cell implantation (reference value: 23.96 10^3/mm3)); assay type: organism-based; conditions: in vivo
Ehrlich [7] = assay: Antitumor activity against mouse EAC cells implanted in Swiss mouse assessed as viable cell count per 100 ul at 0.5 mg/mouse dosed for 9 days starting 1 day after tumor cell implantation (reference value: 83.2 x 10^6/100 ul); assay type: functional
WI-38 = assay: Cytotoxicity in human WI38 cells assessed as reduction in cell viability by MTT assay; assay type: cell-based
Ehrlich [8] = assay: Antitumor activity against mouse EAC cells implanted in Swiss mouse assessed as tumor volume at 0.5 mg/mouse dosed for 9 days starting 1 day after tumor cell implantation (reference value: 9.85 ml); assay type: functional

Row | Compound | diameter of the inhibition zone (DIZ) [1] [mm] | MIC (Bacillus cereus) [µg/mL] | MIC (Staphylococcus aureus) [µg/mL] | MIC (Escherichia coli) [µg/mL] | IC50 (HCT-116) [µM] | IC50 (HepG2) [µM] | Activity (Calf thymus DNA) | MIC (Aspergillus fumigatus) [µg/mL] | IC50 (MCF7) [µM] | Activity (Mus musculus [2]) [g/dL] | Activity (Mus musculus [3]) [×10⁶ /mm3] | MST (Ehrlich [4]) [days] | ILS (Ehrlich [5]) [%] | Activity (Mus musculus [6]) [×10³ /mm3] | Activity (Ehrlich [7]) [×10⁶ No_unit] | IC50 (WI-38) [µM] | Activity (Ehrlich [8]) [mL]
1 | O=[N+]([O-])c1ccc2[nH]c(CNc3c([N+](=O)[O-])ccc4ncccc34)nc2c1 | 4 | 312 (≈ 0.858 mM) | 2500 (≈ 6.86 mM) | 1250 (≈ 3.43 mM) | 256 | 265 | Active | 2500 (≈ 6.86 mM) | 274 |  |  |  |  |  |  |  | 
2 | CC1=NN(Cc2nc3ccccc3[nH]2)C(=O)C1 | 4 | 1250 (≈ 5.48 mM) | 156 (≈ 0.685 mM) | > 2500 | 42 | 54 | Active | 312 (≈ 1.37 mM) | 62 | 11.47 | 4.55 | 31.5 | 110.34 | 11.26 | 45.38 | 246 | 4.16
3 | NS(=O)(=O)c1nnc(NCc2nc3cc([N+](=O)[O-])ccc3[nH]2)s1 | <2 | > 2500 | > 2500 | > 2500 | 176 | 184 |  | > 2500 | 230 |  |  |  |  |  |  |  | 
4 | O=C1c2ccccc2C(=O)N1NCc1nc2ccccc2[nH]1 | 4 | > 2500 | > 2500 | > 2500 | 31 | 32 | Active | 1250 (≈ 4.28 mM) | 37 | 13.21 | 5.52 | 46.7 | 222.07 | 7.11 | 21.95 | 322 | 2.15
5 | Cc1c(NCc2nc3ccccc3[nH]2)c(=O)n(-c2ccccc2)n1C | 6 | 1250 (≈ 3.75 mM) | 312 (≈ 0.937 mM) | 2500 (≈ 7.5 mM) | 38 | 63 | Active | 625 (≈ 1.87 mM) | 53 |  |  |  |  |  |  |  | 
6 | Cc1c(NCc2nc3cc([N+](=O)[O-])ccc3[nH]2)c(=O)n(-c2ccccc2)n1C | <2 | 1250 (≈ 3.3 mM) | 625 (≈ 1.65 mM) | 2500 (≈ 6.61 mM) | 44 | 93 |  | 2500 (≈ 6.61 mM) | 78 |  |  |  |  |  |  |  | 
7 | Oc1cc(O)c2c(c1)O[C@H](c1ccc(O)c(O)c1)[C@@H](O)C2 [CIANIDANOL] | 2 |  |  |  |  |  |  |  |  |  |  |  |  |  |  |  | 
8 | CC1(C)S[C@@H]2[C@H](NC(=O)[C@H](N)c3ccccc3)C(=O)N2[C@H]1C(=O)O [AMPICILLIN] |  | 1250 (≈ 3.58 mM) | 312 (≈ 0.894 mM) | 19.5 (≈ 0.0559 mM) |  |  |  |  |  |  |  |  |  |  |  |  | 
9 | CC[n+]1c(-c2ccccc2)c2cc(N)ccc2c2ccc(N)cc21 |  |  |  |  |  |  | Active |  |  |  |  |  |  |  |  |  | 
10 | Fc1ccc2nc(NCc3nc4ccccc4[nH]3)sc2c1 | 11 | > 2500 | 156 (≈ 0.524 mM) | > 2500 | 238 | 233 | Active | 1250 (≈ 4.19 mM) | 242 |  |  |  |  |  |  |  | 
11 | O=c1[nH]cc(F)c(=O)[nH]1 [FLUOROURACIL] |  |  |  |  | 41 | 61 |  |  | 41.5 | 12.96 | 5.21 | 49 | 237.93 | 8.86 | 20.17 | 51 | 1.6
12 | NS(=O)(=O)c1nnc(NCc2nc3ccccc3[nH]2)s1 | <2 | > 2500 | 625 (≈ 2.01 mM) | 625 (≈ 2.01 mM) | 156 | 162 | Active | > 2500 | 228 |  |  |  |  |  |  |  | 
13 | O=[N+]([O-])c1ccc2ncccc2c1NCc1nc2ccccc2[nH]1 | 8 | 156 (≈ 0.489 mM) | 1250 (≈ 3.91 mM) | 625 (≈ 1.96 mM) | 204 | 259 | Active | 1250 (≈ 3.91 mM) | 237 |  |  |  |  |  |  |  | 
14 | O=[N+]([O-])c1ccc2[nH]c(CNc3nc(-c4ccccc4)cs3)nc2c1 | 6 | > 2500 | > 2500 | > 2500 | 198 | 226 |  | 1250 (≈ 3.56 mM) | 254 |  |  |  |  |  |  |  | 
15 | CCOC(=O)c1c(NCc2nc3ccccc3[nH]2)sc2c1CCCCC2 | 3 | > 2500 | > 2500 | > 2500 | 31 | 43 | inactive | > 2500 | 40 | 12.13 | 4.89 | 39 | 168.9 | 9.11 | 29.65 | 58 | 3.23
16 | O=[N+]([O-])c1ccc2[nH]c(CNc3nc4ccc(F)cc4s3)nc2c1 | 6 | > 2500 | > 2500 | > 2500 | 253 | 263 |  | 1250 (≈ 3.64 mM) | 291 |  |  |  |  |  |  |  | 
17 | COc1ccc2c(c1)CCC/C2=N\NCc1nc2ccccc2[nH]1 | <2 | > 2500 | 1250 (≈ 3.9 mM) | > 2500 | 41 | 80 |  | > 2500 | 63 |  |  |  |  |  |  |  | 
18 | CC1=NN(Cc2nc3cc([N+](=O)[O-])ccc3[nH]2)C(=O)C1 | 3 | 1250 (≈ 4.57 mM) | 2500 (≈ 9.15 mM) | > 2500 | 200 | 265 |  | 625 (≈ 2.29 mM) | 281 |  |  |  |  |  |  |  | 
19 | OC(Cn1cncn1)(Cn1cncn1)c1ccc(F)cc1F [FLUCONAZOLE] |  |  |  |  |  |  |  | > 2500 |  |  |  |  |  |  |  |  | 
20 | O=[N+]([O-])c1ccc2[nH]c(CN3CCN(c4ccc(F)cc4)CC3)nc2c1 | <2 | 2500 (≈ 7.03 mM) | 1250 (≈ 3.52 mM) | 2500 (≈ 7.03 mM) | 14 | 22 | Active | 2500 (≈ 7.03 mM) | 15 | 13.15 | 5.36 | 44.5 | 206.98 | 7.34 | 23.54 | 298 | 2.32
21 | COc1ccc2c(c1)CCC/C2=N\NCc1nc2cc([N+](=O)[O-])ccc2[nH]1 | <2 | > 2500 | > 2500 | > 2500 | 45 | 96 |  | 2500 (≈ 6.84 mM) | 78 |  |  |  |  |  |  |  | 
